# Reference: US7655225B2, “Methods of expanding stem and progenitor cells and expanded cell populations obtained thereby” (Gamida Cell, Ltd., priority 2002, dated 2010)
# Experiments:
# CD34+ cells [1] = experiment: Self-renewal potential: colony-forming cells (CFU) from CD34+ cultures; assay type: cell-based, human; conditions: for number of colony-forming cells of CD34+ vs untreated control: 5 and 7 weeks incubation, different concentrations, TPO, FLT-3, IL-6, IL-3, FIGS. 15a-c; for CFUc: eight-week cultures, FIG. 2d, control 0; for numbers of CD34+ Lin− colony-forming cells, fold higher than untreated control: four weeks, with IL-3, FIG. 6d
# Text: Ex vivo expansion of progenitor cells: Enriched CD34^+ cell fractions were cultures in 24-well Costar Cell Culture Clusters (Corning Inc., Corning, N.Y.) or in Culture Bags (American Fluoroseal Corp.) with alpha minimal essential medium supplemented with 10% fetal bovine serum (FBS, Biological Industries), at about 1-3×10^4 cells/ml medium. The media were further supplemented with the following human recombinant cytokines (all obtained from Perpo Tech, Inc., Rocky Hill, N.J.): Thrombopoietin (TPO), 50 ng/ml; interleukin 6 (IL-6), 50 ng/ml; FLT-3 ligand, 50 ng/ml; and IL-3, 20 ng/ml. The cultures were incubated at 37° C. in an atmosphere of 5% CO2 in air with extra humidity. At weekly intervals cell cultures were semi-depopulated and supplemented with fresh medium containing the cytokines. Following different incubation periods, the cells were harvested, stained with trypan blue and enumerated. The total cell counts, numbers of CD34^+ cells and subsets thereof, and the number of colony-forming cells (CFU) are presented herein as cumulative numbers, with the assumption that the cultures had not been passaged, namely, the numbers of cells per ml were multiplied by the number of passages performed. Self-renewal potential evaluations: The self-renewal potential of stem cells was determined in vitro by long-term colony formation. Cells were washed and seeded in a semi-solid methylcellulose medium supplemented with 2 IU/ml erythropoietin ([…] Int., Switzerland), stem cell factor and IL-3, both at 20 ng/ml (Perpo Tech), and G-CSF and GM-CSF, both at 10 ng/ml (Perpo Tech). The resulting colonies were scored after two weeks of incubation at 37° C. in a humidified atmosphere of 5% CO2 in air. Colonies were classified as blast, mixed, erythroid, myeloid, and megakaryocytic, according to their cellular composition.
# CD34+ cells [2] = experiment: Cellular copper content by atomic absorption; assay type: cell-based, human; conditions: 2 days incubation, relative to untreated control
# Protocol: Cell cultures: Cultures of enriched CD34^+ cell fraction were generated, maintained and analyzed as described in Example 1 above.
# Copper Determination: Cells were harvested by centrifugation at 1000 g for 5 minutes. The cell pellet was washed three times in PBS. Aliquots containing 2×10^6 cells were then transferred into a metal-free Eppendorf tube and pelleted by centrifugation at 1000 g. The cell pellet was re-suspended in 0.03 M ultra-pure nitric acid to give a concentration of 1×10^7 cells/ml. The cells were sonicated and then analyzed in duplicate by a Perkin Elmer graphite furnace atomic absorption spectrophotometer at a wavelength of 324.7 nm and a 0.7 slit width. The following times and temperatures were used: drying at 95° C. for 45 seconds with a 15-s ramp; charring at […] for 30 seconds with a 10-s ramp, and atomization at […] for 10 seconds. The peak area was integrated for 10 seconds. The samples were analyzed against copper standard solution prepared from a commercial stock solution that was diluted with 0.03 M ultra pure nitric acid.
# Effect of TEPA-Cu chelate and TEPA chelator on the cellular copper content: Purified CD34^+ cell were seeded in liquid culture in the presence of early cytokines and treated either with TEPA-Cu chelate or with TEPA chelator. After 2 days incubation, cells were separated from culture media and analyzed for cellular copper content. The results are presented in Table 1 below and indicate that cultured cells treated with TEPA-Cu chelate, at different concentrations, developed progressively higher cellular copper content. In contrast, cultured cells treated with TEPA chelator, at different concentrations, developed progressively lower cellular copper contents.
Compound,number of colony-forming cells of CD34+ vs untreated control (CD34+ cells [1]),Relative cellular-copper content (%) (CD34+ cells [2]; 5 μM),Relative cellular-copper content (%) (CD34+ cells [2]; 10 μM),Relative cellular-copper content (%) (CD34+ cells [2]; 20 μM),CFUc (CD34+ cells [1]; 5 μM),CFUc (CD34+ cells [1]; 10 μM),CFUc (CD34+ cells [1]; 15 μM),CFUc (CD34+ cells [1]; 20 μM),"numbers of CD34+ Lin− colony-forming cells, fold higher than untreated control (CD34+ cells [1]; 20 μM)",CFUc (CD34+ cells [1]; 40 μM),"numbers of CD34+ Lin− colony-forming cells, fold higher than untreated control (CD34+ cells [1]; 40 μM)","numbers of CD34+ Lin− colony-forming cells, fold higher than untreated control (CD34+ cells [1]; 50 μM)","effectiveness of higher vs lower concentrations on colony-forming cells (CD34+ cells [1]; 100 μM vs 10 and 50 μM, 8 week-old cultures, FIG. 1)","colony-forming cells of CD34+ vs cultures treated only with cytokines (CD34+ cells [1]; 8 week-old cultures, FIG. 1)","numbers of CFUc vs non-treated control (cytokines only) (CD34+ cells [1]; longer incubation (5, 6, 8 weeks), chelate supplemented first three weeks, FIGS. 2b-d)",Relative cellular-copper content (%) (CD34+ cells [2]; 30 μM),Relative cellular-copper content (%) (CD34+ cells [2]; 60 μM)
"NCCNCCNCCNCCN [TEPA chelator, tetraethylenepentamine]",substantially increased,80%,55%,42%,–,–,–,–,–,–,–,–,–,–,–,–,–
"NCCNCCNCCNCCN.[Cl-].[Cl-].[Cu+2] [TEPA-Cu chelate, tetraethylenepentamine-copper chelate]",substantially increased,–,178%,–,0 CFUc,1 CFUc,30 CFUc,120 CFUc,7 fold,400 CFUc,9 fold,7.5 fold,substantially more effective,substantially more colony-forming cells,substantially higher,235%,290%
